Molecules are shown by their SMILES.

The experiment addresses T1, recombinant human mPGES-1 (Homo sapiens, UniProt O14684).
T1 construct: made in house; host or cells: Rosetta E. coli (membrane/microsome fraction)
T1 sequence (O14684 1-152): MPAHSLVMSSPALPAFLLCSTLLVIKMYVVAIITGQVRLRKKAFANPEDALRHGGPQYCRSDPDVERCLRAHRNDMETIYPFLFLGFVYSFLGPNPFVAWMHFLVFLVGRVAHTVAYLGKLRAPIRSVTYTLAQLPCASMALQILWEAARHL
The experiment can be described thus: Assay B: mPGES-1 enzyme assay (modified). It is filed as biochemical. Particulars: biological assay B (modified); PGH2 final conc. 2 μM; read-out: mPGES-1 inhibitory effect IC50. The protocol: Assay B: mPGES-1 Enzyme Assay (Modified)
Microsomes from Rosetta E. coli bacteria expressing recombinant human mPGES-1 can be derived as described below:
Inoculate 5 ml LB with Ampicilin (50 μg/ml) and Chloramphenicol (34 μg/ml) with bacteria from freeze culture. Incubate 8 h at 37° C. with 200 rpm. Thereafter, inoculate 500-1000 ml LB containing Ampicilin and Chloramphenicol with the 5 ml on culture and grow to OD640 of 0.8-1.0. Chill the culture to +4° C. before induction. Induce the culture with IPTG at a final concentration of 400 μM. Express the protein at room temp 18-23° C. with 200 rpm shaking overnight.
The following steps can be performed on the following day: • 1. Spin down the cells in 250 ml centrifuge flasks for 15 min at 7000 rpm (Beckmann Coulte Avanti J-E centrifuge) • 2. Dissolve the pellet from 250 ml culture in 12.5 ml homogenization buffer • 3. (15 mM Tris-HCL pH8, 1 mM EDTA pH8, […], 2.5 mM GSH, 1 Tablet Protease inhibitor per 50 ml buffer) • 4. Disintegrate the cells by sonication, 5×10 seconds at 48% amplitude of a 750 W sonifier • 5. Add 2.5 ml MgCl2 (100 mM) and DNase 12.5 μl (0.8 mg/ml) and incubate on ice for 30 min • 6. Spin down the bacteria debris and save the supernatant, 7000 rpm for 15 min • 7. Isolate the protein containing membranes in the supernatant by ultracentrifugation 120000×g for 2 hour at 4° C. (Sorvall T880 rotor). • 8. Discard the supernatant and dissolve the pellet in 20 mM Potassium phosphate buffer pH7.4 (KH2PO4 and K2HPO4) buffer by sonication (5×10 s, 30% of a 50 W sonifier) and aliquot the enzyme and store aliquots at −80° C.
Before each experiment is performed an aliquot of the enzyme is thawed and it can then be dissolved in 0.1 M Potassium phosphate buffer pH7.4 (KH2PO4 and K2HPO4) buffer containing 2.5 mM GSH.
The aim of this assay is to determine the affinity of a test compound for the mPGES-1 enzyme.
47 μl of recombinant human mPGES-1 (˜0.5 μg protein/well) containing microsomal suspension in a buffer containing GSH, (2.5 mmol/L L-Glutathione reduced, dissolved in 0.1 mol/L Phosphat Buffer pH 7.4) is dispensed in a 384-well plate and thereafter 1 μl of the test compound(s) is/are added and incubated for 25 minutes at room temperature. The enzyme reaction is started by the addition of 2 ul PGH2 (final conc. 2 μM) dissolved in water-free Diglyme. After 60 seconds the reaction is terminated by addition of a stop solution containing FeCl2 (10 μL 0.074 mol/l FeCl2). The samples are diluted between 1:25 in PBS (Phosphate Buffered Saline). 10 μl of the diluted samples are transferred to 384-well low volume plate. In order to quantify the amount of PGE2 that has been formed, a homogenous time resolved fluorescent (HTRF) detecting of PGE2 has been performed using a commercially available kit from Cisbio according to the manufactures recommendation. This HTRF-based assay has been described in detail (see: Goedken et al., J Biomol Screen, 2008, 13(7), 619-625). Briefly, the diluted samples are mixed with 5 μl PGE2-d2 conjungate and 5 μl anti-PGE2 cryptate conjungate. After an incubation period of the plates overnight, the fluorescence is measured by the use of an appropriate microplate reader.
The fluorescence of Europium cryptate (maxex=307 nm, maxem=620 nm) and d2-PGE2 (maxex=620 nm, maxem=665 nm) are measured.
The extent of the specific HTRF is measured as a ratio of the emission intensity at 665 nm vs. that at 620 nm at an excitation puls of 320 nm. The quantification plate contains also wells with different concentrations of PGE2 as calibration curve for the calculation of the PGE2 concentrations from the HTRF ratio values.
From all mPGES enzyme assay the background is subtracted and the IC50 is calculated over a nonlinear regression with conventional software.
Consider `Cn1c(Nc2cc(CNC(=O)C(C)(C)C)ccc2Cl)nc2cc(N3CCC(C(F)(F)F)CC3)ccc21` [Example 12], for which the half-inhibitory concentration (IC50) worked out at 174 nM. Turning to `Cn1c(Nc2c(Cl)ccc(CNC(=O)C(C)(C)C)c2F)nc2cc(Cl)c(N3CCC(F)CC3)cc21` [Example 33, N-{2-Fluoro-4-chloro-3-[5-chloro-1-methyl-6-(4-fluoro-piperidin-1-yl)-1H-benzimidazol-2-ylamino]-benzyl}-2,2-dimethyl-propionamide], the IC50 was found to be 3 nM.

Take `CN(CC(C)(C)O)c1cc2c(cc1Cl)nc(Nc1c(Cl)ccc(CNC(=O)C(C)(C)C)c1F)n2C` [Example 37]: the IC50 came out at 7.8 nM. The figure for `CC(C)(C)C(=O)NCc1ccc(Cl)c(Nc2nc3cc(Cl)c(N4CCC(C(F)(F)F)CC4)cc3[nH]2)c1Cl` [Example 40, N-{2,4-Dichloro-3-[5-chloro-6-(4-trifluoromethyl-piperidin-1-yl)-1H-benzimidazol-2-ylamino]-benzyl}-2,2-dimethyl-propionamide] is 5.7 nM; for `CC(C)(C)C(=O)NCc1ccc(Cl)c(Nc2nc3cc(Cl)c(N4CCC(F)CC4)cc3[nH]2)c1F` [Example 48] it is 9 nM. For the compound `Cn1c(Nc2c(Cl)ccc(CNC(=O)OC(C)(C)C)c2Cl)nc2cc(Cl)c(N3CCCC(C(F)(F)F)C3)cc21` (stereo not drawn) [Example 51], the IC50 came out at 23 nM. The figure for `CC(C)(C)C(=O)NCc1ccc(Cl)c(Nc2nc3cc(Cl)c(N4CCCC(C(F)(F)F)C4)cc3[nH]2)c1Cl` (stereo not drawn) [Example 52] is 2.2 nM; for `Cn1c(Nc2c(Cl)ccc(CNC(=O)C(C)(C)C)c2Cl)nc2cc(Cl)c(N3CCCC(C(F)(F)F)C3)cc21` (stereo not drawn) [Example 53] it is 3.5 nM. The figure for `Cn1c(Nc2c(Cl)ccc(CNC(=O)C(C)(C)C)c2Cl)nc2cc(Cl)c(N3CCC(C(F)(F)F)C3)cc21` (stereo not drawn) [Example 59] is 2 nM. For the compound `CC(C)(C)C(=O)NCc1ccc(Cl)c(Nc2nc3cc(C(F)(F)F)c(N4CCC(C(F)(F)F)CC4)cc3[nH]2)c1Cl` [Example 61, N-{2,4-Dichloro-3-[5-trifluoromethyl-6-(4-trifluoromethyl-piperidin-1-yl)-1H-benzimidazol-2-ylamino]benzyl}-2,2-dimethyl-propionamide], the IC50 amounted to 5 nM. The figure for `Cn1c(Nc2c(F)ccc(CNC(=O)C(C)(C)C)c2F)nc2cc(Cl)c(N3CCC(C(F)(F)F)CC3)cc21` [Example 70, N-{2,4-Difluoro-3-[5-chloro-1-methyl-6-(4-trifluoromethyl-piperidin-1-yl)-1H-benzimidazol-2-ylamino]-benzyl}-2,2-dimethyl-propionamide] is 6.5 nM; for `Cn1c(Nc2cc(CNC(=O)C3(C(F)(F)F)CC3)ccc2Cl)nc2cc(Cl)c(N3CCN(CC(F)(F)F)CC3)cc21` [Example 92] it is 39 nM; for `Cn1c(Nc2cc(CNC(=O)C(C)(C)C(F)(F)F)ccc2Cl)nc2cc(Cl)c(N3CCC(c4ccccc4)CC3)cc21` [Example 97] it is 3.1 nM. As for `Cn1c(Nc2cc(CNC(=O)C(C)(C)C(F)(F)F)ccc2Cl)nc2cc(Cl)c(N3CCN(c4ccc(C(F)(F)F)cc4)CC3)cc21` [Example 98], the figure is 6.5 nM; as for `CC(C)(C)C(=O)NCc1ccc(Cl)c(Nc2nc3cc(C#N)c(N4CCC(C(F)(F)F)CC4)cc3[nH]2)c1Cl` [Example 131], 5 nM.

As a reminder, the IC50 is the point on the concentration scale where inhibition reaches its midpoint.

The values are drawn from US8466186B2, “Compounds” (Boehringer Ingelheim International GmbH, priority 2010, dated 2013).
